From US7745495B2, “Pyridine ketones with herbicidal effect” (Syngenta Crop Protection, Inc., priority 2004, dated 2010)

Columns and labels:
Assay type in all cases: in vivo
[1] = test system: Panicum; test: Pre-emergence herbicidal action; conditions: rating 10=total damage, 0=no action; for Pre-emergence herbicidal action: Panicum: 250 g/ha, after 3 weeks; for Pre-emergent Herbicidal Activity: Panicum: Table B4
Procedure: (§1) Monocotyledonous and dicotyledonous test plants are sown in standard soil in plastic pots. […] The test plants are then grown in a greenhouse under optimum conditions. After a test duration of 3 weeks, the test is evaluated in accordance with a scale of ten ratings (10=total damage, 0=no action). Ratings of from 10 to 7 (especially from 10 to 8) indicate good to very good herbicidal action.

[2] = test system: Echinochloa; test: Pre-emergence herbicidal action; conditions: rating 10=total damage, 0=no action; for Pre-emergence herbicidal action: Echinochloa: 250 g/ha, after 3 weeks
Procedure: as §1

[3] = test system: Digitaria; test: Pre-emergence herbicidal action; conditions: rating 10=total damage, 0=no action; for Pre-emergence herbicidal action: Digitaria: 250 g/ha, after 3 weeks
Procedure: as §1

[4] = test system: Amaranthus; test: Pre-emergence herbicidal action; conditions: rating 10=total damage, 0=no action; for Pre-emergence herbicidal action: Amaranthus: 250 g/ha, after 3 weeks
Procedure: as §1

[5] = test system: Abutilon; test: Pre-emergence herbicidal action; conditions: rating 10=total damage, 0=no action; for Pre-emergence herbicidal action: Abutilon: 250 g/ha, after 3 weeks
Procedure: as §1

[6] = test system: Corn; test: Pre-emergent herbicidal activity on crop plant; conditions: crop plant, rating 10=total damage, 0=no action; for Pre-emergent Herbicidal Activity: Mais: Table B5
Procedure: as §1
(§2) In the following Table B3, the pre-emergent herbicidal activity of compound H-14 according to the invention is compared with 4 compounds according to the prior art. All compounds are structurally identical except for the nature of the alkylene linker attached to the pyridine ring.

[7] = test system: Soya; test: Pre-emergent herbicidal activity on crop plant; conditions: crop plant, rating 10=total damage, 0=no action; for Pre-emergent Herbicidal Activity: Soja: Table B5
Procedure: as §1, §2

[8] = test system: Chenopodium; test: Pre-emergence herbicidal action; conditions: 250 g/ha; after 3 weeks; rating 10=total damage, 0=no action
Procedure: (§3) Monocotyledonous and dicotyledonous test plants are sown in standard soil in plastic pots. Immediately after sowing, the test compounds, in the form of an aqueous suspension (prepared from a 25% wettable powder (Example F3, b) according to WO 97/34485) or in the form of an emulsion (prepared from a 25% emulsifiable concentrate (Example F1, c)), are applied by spraying a concentration corresponding to 125 g or 250 g of active ingredient/ha (500 liter of water/ha). The test plants are then grown in a greenhouse under optimum conditions. After a test duration of 3 weeks, the test is evaluated in accordance with a scale of ten ratings (10=total damage, 0=no action). Ratings of from 10 to 7 (especially from 10 to 8) indicate good to very good herbicidal action.

[9] = test system: Stellaria; test: Pre-emergence herbicidal action; conditions: 250 g/ha; after 3 weeks; rating 10=total damage, 0=no action
Procedure: as §3

[10] = test system: Setaria; test: Pre-emergent herbicidal activity; conditions: Table B3, rating 10=total damage, 0=no action
Procedure: as §1, §2

[11] = test system: Brachiaria; test: Pre-emergent herbicidal activity; conditions: rating 10=total damage, 0=no action
Procedure: as §1, §2

[12] = test system: Setaria; test: Post-emergence herbicidal action; conditions: 250 g/ha; 4- to 6-leaf stage; after about 18 days; rating 10=total damage, 0=no action
Procedure: (§4) In a greenhouse, monocotyledonous and dicotyledonous test plants are grown in standard soil in plastic pots and at the 4- to 6-leaf stage are sprayed with an aqueous suspension of the test compounds of formula I prepared from a 25% wettable powder (Example F3, b) according to WO 97/34485) or with an emulsion of the test compounds of formula I prepared from a 25% emulsifiable concentrate (Example F1, c) according to WO 97/34485), in a concentration corresponding to 125 g or 250 g of active ingredient/ha (500 liter of water/ha). The test plants are then grown on in a greenhouse under optimum conditions. After a test duration of about 18 days, the test is evaluated in accordance with a scale of ten ratings (10=total damage, 0=no action). Ratings of from 10 to 7 (especially from 10 to 8) indicate good to very good herbicidal action.

[13] = test system: Panicum; test: Post-emergence herbicidal action; conditions: 250 g/ha; 4- to 6-leaf stage; after about 18 days; rating 10=total damage, 0=no action
Procedure: as §4

[14] = test system: Chenopodium; test: Post-emergence herbicidal action; conditions: 250 g/ha; 4- to 6-leaf stage; after about 18 days; rating 10=total damage, 0=no action
Procedure: as §4

[15] = test system: Digitaria; test: Post-emergence herbicidal action; conditions: 250 g/ha; 4- to 6-leaf stage; after about 18 days; rating 10=total damage, 0=no action
Procedure: as §4

[16] = test system: Ipomea; test: Post-emergence herbicidal action; conditions: 250 g/ha; 4- to 6-leaf stage; after about 18 days; rating 10=total damage, 0=no action
Procedure: as §4

[17] = test system: Stellaria; test: Post-emergence herbicidal action; conditions: 250 g/ha; 4- to 6-leaf stage; after about 18 days; rating 10=total damage, 0=no action
Procedure: as §4

[18] = test system: Sinapis; test: Post-emergence herbicidal action; conditions: 250 g/ha; 4- to 6-leaf stage; after about 18 days; rating 10=total damage, 0=no action
Procedure: as §4

[19] = test system: Abutilon; test: Post-emergence herbicidal action; conditions: 250 g/ha; 4- to 6-leaf stage; after about 18 days; rating 10=total damage, 0=no action
Procedure: as §4

[20] = test system: Scirpus; test: Pre-emergent herbicidal activity; conditions: Table B5, rating 10=total damage, 0=no action
Procedure: as §1
In the following Table B5, the pre-emergent herbicidal activity of compound H-9 according to the invention is compared with compound E according to the prior art. Both compounds are structurally identical except for the length of the alkylene linker attached to the pyridine ring.

[21] = test system: Xanthium; test: Pre-emergent herbicidal activity; conditions: Table B4, rating 10=total damage, 0=no action
Procedure: as §1
In the following Table B4, the pre-emergent herbicidal activity of compound H-3 according to the invention is compared with compound D according to the prior art. Both compounds are structurally identical except for the length of the alkylene linker attached to the pyridine ring.

## COCCCc1nc(C(F)(F)F)ccc1C(=O)C1C(=O)C2CCC(C2)C1=O (centres unmarked) [Compound H-14, 3-[6-trifluoromethyl-2-(3-methoxy-propyl)-pyridine-3-carbonyl]-bicyclo[3.2.1]octane-2,4-dione]
[1]
  Pre-emergence herbicidal action: Panicum: 10
[2]
  Pre-emergence herbicidal action: Echinochloa: 10
[2]; Table B3, 15 g/ha
  Pre-emergent Herbicidal Activity: Echinochloa: 9
[2]; Table B3, 30 g/ha
  Pre-emergent Herbicidal Activity: Echinochloa: 10
[3]
  Pre-emergence herbicidal action: Digitaria: 10
[4]
  Pre-emergence herbicidal action: Amaranthus: 10
[4]; Table B3, 15 g/ha
  Pre-emergent Herbicidal Activity: Amaranthus: 7
[4]; Table B3, 30 g/ha
  Pre-emergent Herbicidal Activity: Amaranthus: 7
[5]
  Pre-emergence herbicidal action: Abutilon: 10
[5]; Table B3, 15 g/ha
  Pre-emergent Herbicidal Activity: Abutilon: 9
[5]; Table B3, 30 g/ha
  Pre-emergent Herbicidal Activity: Abutilon: 10
[6]; Table B3, 15 g/ha
  Pre-emergent Herbicidal Activity: Corn: 0
[6]; Table B3, 30 g/ha
  Pre-emergent Herbicidal Activity: Corn: 0
[7]; Table B3, 15 g/ha
  Pre-emergent Herbicidal Activity: Soya: 1
[7]; Table B3, 30 g/ha
  Pre-emergent Herbicidal Activity: Soya: 3
[8]
  Pre-emergence herbicidal action: Chenopodium: 10
[9]
  Pre-emergence herbicidal action: Stellaria: 8
[10]; 15 g/ha
  Pre-emergent Herbicidal Activity: Setaria: 9
[10]; 30 g/ha
  Pre-emergent Herbicidal Activity: Setaria: 10
[11]; Table B3, 15 g/ha
  Pre-emergent Herbicidal Activity: Brachiaria: 7
[11]; Table B3, 30 g/ha
  Pre-emergent Herbicidal Activity: Brachiaria: 8
[12]
  Post-emergence herbicidal action: Setaria: 10
[13]
  Post-emergence herbicidal action: Panicum: 10
[14]
  Post-emergence herbicidal action: Chenopodium: 10
[15]
  Post-emergence herbicidal action: Digitaria: 9
[16]
  Post-emergence herbicidal action: Ipomea: 10
[17]
  Post-emergence herbicidal action: Stellaria: 10
[18]
  Post-emergence herbicidal action: Sinapis: 10
[19]
  Post-emergence herbicidal action: Abutilon: 10

## COCCCc1nc(C(F)(F)Cl)ccc1C(=O)C1C(=O)C2CCC(C2)C1=O (centres unmarked) [Compound H-9]
[1]
  Pre-emergence herbicidal action: Panicum: 10
[2]
  Pre-emergence herbicidal action: Echinochloa: 10
[2]; Table B5, 30 g/ha
  Pre-emergent Herbicidal Activity: Echinochloa: 9
[2]; Table B5, 60 g/ha
  Pre-emergent Herbicidal Activity: Echinochloa: 10
[3]
  Pre-emergence herbicidal action: Digitaria: 10
[3]; Table B5, 30 g/ha
  Pre-emergent Herbicidal Activity: Digitaria: 8
[3]; Table B5, 60 g/ha
  Pre-emergent Herbicidal Activity: Digitaria: 9
[4]
  Pre-emergence herbicidal action: Amaranthus: 9
[4]; Table B5, 30 g/ha
  Pre-emergent Herbicidal Activity: Amaranthus: 8
[4]; Table B5, 60 g/ha
  Pre-emergent Herbicidal Activity: Amaranthus: 8
[5]
  Pre-emergence herbicidal action: Abutilon: 10
[5]; Table B5, 30 g/ha
  Pre-emergent Herbicidal Activity: Abutilon: 8
[5]; Table B5, 60 g/ha
  Pre-emergent Herbicidal Activity: Abutilon: 9
[6]; 30 g/ha
  Pre-emergent Herbicidal Activity: Mais: 0
[6]; 60 g/ha
  Pre-emergent Herbicidal Activity: Mais: 1
[7]; 30 g/ha
  Pre-emergent Herbicidal Activity: Soja: 0
[7]; 60 g/ha
  Pre-emergent Herbicidal Activity: Soja: 1
[8]
  Pre-emergence herbicidal action: Chenopodium: 9
[9]
  Pre-emergence herbicidal action: Stellaria: 7
[20]; 30 g/ha
  Pre-emergent Herbicidal Activity: Scirpus: 10
[20]; 60 g/ha
  Pre-emergent Herbicidal Activity: Scirpus: 10
[11]; Table B5, 30 g/ha
  Pre-emergent Herbicidal Activity: Brachiaria: 9
[11]; Table B5, 60 g/ha
  Pre-emergent Herbicidal Activity: Brachiaria: 9
[12]
  Post-emergence herbicidal action: Setaria: 9
[13]
  Post-emergence herbicidal action: Panicum: 9
[14]
  Post-emergence herbicidal action: Chenopodium: 9
[15]
  Post-emergence herbicidal action: Digitaria: 9
[16]
  Post-emergence herbicidal action: Ipomea: 9
[17]
  Post-emergence herbicidal action: Stellaria: 8
[18]
  Post-emergence herbicidal action: Sinapis: 7
[19]
  Post-emergence herbicidal action: Abutilon: 9

## COCc1nc(C(F)(F)Cl)ccc1C(=O)C1C(=O)C2CCC(C2)C1=O (centres unmarked) [E, reference compound]
[2]; Table B5, 30 g/ha
  Pre-emergent Herbicidal Activity: Echinochloa: 8
[2]; Table B5, 60 g/ha
  Pre-emergent Herbicidal Activity: Echinochloa: 9
[3]; Table B5, 30 g/ha
  Pre-emergent Herbicidal Activity: Digitaria: 6
[3]; Table B5, 60 g/ha
  Pre-emergent Herbicidal Activity: Digitaria: 6
[4]; Table B5, 30 g/ha
  Pre-emergent Herbicidal Activity: Amaranthus: 5
[4]; Table B5, 60 g/ha
  Pre-emergent Herbicidal Activity: Amaranthus: 7
[5]; Table B5, 30 g/ha
  Pre-emergent Herbicidal Activity: Abutilon: 0
[5]; Table B5, 60 g/ha
  Pre-emergent Herbicidal Activity: Abutilon: 0
[6]; 30 g/ha
  Pre-emergent Herbicidal Activity: Mais: 0
[6]; 60 g/ha
  Pre-emergent Herbicidal Activity: Mais: 0
[7]; 30 g/ha
  Pre-emergent Herbicidal Activity: Soja: 2
[7]; 60 g/ha
  Pre-emergent Herbicidal Activity: Soja: 4
[20]; 30 g/ha
  Pre-emergent Herbicidal Activity: Scirpus: 9
[20]; 60 g/ha
  Pre-emergent Herbicidal Activity: Scirpus: 9
[11]; Table B5, 30 g/ha
  Pre-emergent Herbicidal Activity: Brachiaria: 0
[11]; Table B5, 60 g/ha
  Pre-emergent Herbicidal Activity: Brachiaria: 0

## COCc1nc(C(F)F)ccc1C(=O)C1C(=O)C2CCC(C2)C1=O (centres unmarked) [D, reference compound]
[1]; 30 g/ha
  Pre-emergent Herbicidal Activity: Panicum: 8
[1]; 60 g/ha
  Pre-emergent Herbicidal Activity: Panicum: 9
[2]; Table B4, 30 g/ha
  Pre-emergent Herbicidal Activity: Echinochloa: 5
[2]; Table B4, 60 g/ha
  Pre-emergent Herbicidal Activity: Echinochloa: 7
[3]; Table B4, 30 g/ha
  Pre-emergent Herbicidal Activity: Digitaria: 7
[3]; Table B4, 60 g/ha
  Pre-emergent Herbicidal Activity: Digitaria: 9
[4]; Table B4, 30 g/ha
  Pre-emergent Herbicidal Activity: Amaranthus: 7
[4]; Table B4, 60 g/ha
  Pre-emergent Herbicidal Activity: Amaranthus: 7
[5]; Table B4, 30 g/ha
  Pre-emergent Herbicidal Activity: Abutilon: 6
[5]; Table B4, 60 g/ha
  Pre-emergent Herbicidal Activity: Abutilon: 9
[6]; Table B4, 30 g/ha
  Pre-emergent Herbicidal Activity: Corn: 0
[6]; Table B4, 60 g/ha
  Pre-emergent Herbicidal Activity: Corn: 0
[7]; Table B4, 30 g/ha
  Pre-emergent Herbicidal Activity: Soya: 2
[7]; Table B4, 60 g/ha
  Pre-emergent Herbicidal Activity: Soya: 3
[21]; 30 g/ha
  Pre-emergent Herbicidal Activity: Xanthium: 0
[21]; 60 g/ha
  Pre-emergent Herbicidal Activity: Xanthium: 0
